Assay results: patent publication US4315026A, “Alkylpolyoxysulfinyl and alkylpolythiosulfinyl derivatives of carbamate esters” (priority 1980, dated 1982)
Like-named read-outs stand apart in the source and are kept apart here.

Tests used:
[1] = Mammalian toxicity, oral, Swiss white mice (LD50); format: in vivo; details: mouse, in vivo, propylene glycol carrier
Protocol: For mice toxicity, the compound was dissolved in propyleneglycol or corn oil as a carrier and all compounds were tested at the level up to 1,000 mg/kg. All of the above noted compounds tested were lower in toxicity as compared with the parent compounds.
Mammalian toxicity was determined against Swiss white mice.

[2] = system: house flies, Musca domestica; assay: whole plant or invertebrate; format: in vivo; details: read-out: House flies LD50
Protocol: In another series of tests, stock 1% concentrated solutions of each of the test compounds of Table I below, and of the commercial related carbamate ester insecticides methomyl, carbofuran and oxamyl, were made in acetone, and such solutions were diluted with acetone to a concentration of 0.001-0.8%. House flies were treated topically on the notum by 1 μl of each of the diluted acetone solutions and percent mortality was counted 24 hours after application.

[3] = topical on the notum, 1 μl of 0.001-0.8% acetone solutions, 24 hours, 60° F

Compound	LD50 [1] [mg/kg]	LD50 [2, 3] [mg/kg]	LD50 ([2]; topical, 24 h) [mg/kg]
CSC(C)=NOC(=O)N(C)S(=O)OCC(COCc1ccccc1)OS(=O)N(C)C(=O)ON=C(C)SC (centres unmarked) [XIII, N,N'-(3-Benzyloxy-1,2-propanedioxysulfinyl)-bis (S-methyl N-methylcarbamoyloxythioacetimidate)]	50 to 100	< 50	–
Cc1cccc(OC(=O)N(C)S(=O)OCC(COC(C)C)OS(=O)N(C)C(=O)Oc2cccc(C)c2)c1 (centres unmarked) [XXIII, N,N'-(3-Isopropoxy-1,2-propanedioxysulfinyl)-bis (3-methyl-phenyl methylcarbamate)]	> 1000	–	–
CNC(=O)ON=C(C)SC [methomyl, reference compound]	–	3.7	–
C=CCOCC(COS(=O)N(C)C(=O)Oc1cccc2ccccc12)OS(=O)N(C)C(=O)Oc1cccc2ccccc12 (centres unmarked) [XXXVI, N,N'-(3-Allyloxy-1,2-propanedioxysulfinyl)-bis(1-naphthyl methylcarbamate)]	> 1000	–	–
CSC(=NOC(=O)N(C)S(=O)OC1C(C2COC(C)(C)O2)OC2OC(C)(C)OC21)C(=O)N(C)C (centres unmarked) [XXXV, S-Methyl N-(1,2,5,6-di-O-isopropylidene-3-O-glucofuranosylsulfinyl) N-methylcarbamoyloxy-2-(N',N'-dimethylamino)-2-oxoethanimidothioate]	25 to 50	26.5	–
CSC(=NOC(=O)N(C)S(=O)OC1COC(c2ccccc2)OC1)C(=O)N(C)C (centres unmarked) [XXVII, S-Methyl N-(2-phenyl-1,3-dioxane-5-ylmethoxysulfinyl)-N-methylcarbamoyloxy-2-(N',N'-dimethylamino)-2-oxoethanimidothioate]	25	161	–
CN(C(=O)Oc1cccc2ccccc12)S(=O)OCC(COS(=O)N(C)C(=O)Oc1cccc2ccccc12)OS(=O)N(C)C(=O)Oc1cccc2ccccc12 (centres unmarked) [XXXX, N,N',N"-(1,2,3-Propanetrioxysulfinyl)-tris-(1-naphthyl methylcarbamate)]	> 1000	–	–
Cc1cccc(OC(=O)N(C)S(=O)OC2C3OC(C)(C)OC3COC23COC(C)(C)O3)c1 (centres unmarked) [XXV, 3-Methylphenyl N-(1,2,4,5-di-O-isopropylidene-3-O-fructopyranosylsulfinyl)-N-methylcarbamate]	> 1000	–	–
CNC(=O)Oc1cccc2c1OC(C)(C)C2 [carbofuran, reference compound]	2	–	6.7
CSC(=NOC(=O)N(C)S(=O)OCC(COC(C)C)OS(=O)N(C)C(=O)ON=C(SC)C(=O)N(C)C)C(=O)N(C)C (centres unmarked) [XXXII, N,N'-(3-Isopropoxy-1,2-propanedioxysulfinyl)-bis[S-methyl N-methylcarbamoyloxy-2-(N',N'-dimethylamino)-2-oxoethanimidothioate]]	16	–	–
C=CCOC(COS(=O)N(C)C(=O)Oc1cccc2ccccc12)COS(=O)N(C)C(=O)Oc1cccc2ccccc12 (centres unmarked) [XXXVII, N,N'-(2-Allyloxy-1,3-propanedioxysulfinyl)-bis(1-naphthyl methylcarbamate)]	> 1000	–	–
CC(C)Oc1ccccc1OC(=O)N(C)S(=O)OCC(COS(=O)N(C)C(=O)Oc1ccccc1OC(C)C)OS(=O)N(C)C(=O)Oc1ccccc1OC(C)C (centres unmarked) [XXXXIII, N,N',N"(1,2,3-Propanetrioxysulfinyl)-tris-(2-isopropoxyphenyl methylcarbamate)]	> 1000	–	–
Cc1cccc(OC(=O)N(C)S(=O)OCC(COCc2ccccc2)OS(=O)N(C)C(=O)Oc2cccc(C)c2)c1 (centres unmarked) [XXII, N,N'-(3-Benzyloxy-1,2-propanedioxysulfinyl)-bis (3-methylphenyl methylcarbamate)]	> 1000	–	–
CSC(=NOC(=O)N(C)S(=O)OCC1COC(C)(C)O1)C(=O)N(C)C (centres unmarked) [XXVIII, S-Methyl N-(2,2-dimethyl-1,3-dioxolane-5-ylmethoxysulfinyl)-N-methylcarbamoyloxy-2-(N'N'-dimethylamino)-2-oxoethanimidothioate]	31	2.6	–
Cc1cccc(OC(=O)N(C)S(=O)OCC2COC(C)(C)O2)c1 (centres unmarked) [XX, 3-Methylphenyl N-(2,2-dimethyl-1,3-dioxolane-5-ylmethoxysulfinyl)-N-methylcarbamate]	> 1000	–	–
CSC(=NOC(=O)N(C)S(=O)OCC(COCc1ccccc1)OS(=O)N(C)C(=O)ON=C(SC)C(=O)N(C)C)C(=O)N(C)C (centres unmarked) [XXXI, N,N'-(3-Benzyloxy-1,2-propanedioxysulfinyl)-bis-[S-methylcarbamoyloxy-2-(N',N'-dimethylamino)-2-oxoethanimidothioate]]	12.5 to 25	–	–
Cc1cccc(OC(=O)N(C)S(=O)OCC23OCC4OC(C)(C)OC4C2OC(C)(C)O3)c1 (stereo not drawn) [XXIV, 3-Methylphenyl N-(2,3,4,5-di-O-isopropylidene-1-α-O-fructopyranosylsulfinyl)-N-methylcarbamate]	> 1000	–	–
CSC(=NOC(=O)N(C)S(=O)OCC12OCC3OC(C)(C)OC3C1OC(C)(C)O2)C(=O)N(C)C (stereo not drawn) [XXXIV, S-Methyl N-(2,3,4,5-Di-O-isopropylidene-1-α-O-fructopyranosylsulfinyl)-N-methylcarbamoyloxy-2-(N',N'-dimethylamino)-2-oxoethanimidothioate]	44	20	–

Compound	LD50 [1] [mg/kg]	LD50 [2, 3] [mg/kg]	LD50 ([2]; topical, 24 h) [mg/kg]
CSC(C)=NOC(=O)N(C)S(=O)OC1COC(c2ccccc2)OC1 (centres unmarked) [X, S-Methyl N-(2-phenyl-1,3-dioxane-5-ylmethoxysulfinyl)N-methylcarbamoyloxythioacetimidate]	85	–	–
CN(C(=O)Oc1cccc2c1OC(C)(C)C2)[S+]([O-])SCCS[S+]([O-])N(C)C(=O)Oc1cccc2c1OC(C)(C)C2 (centres unmarked) [IX]	87	–	36
C=CCOC(COS(=O)N(C)C(=O)Oc1cccc(C)c1)COS(=O)N(C)C(=O)Oc1cccc(C)c1 (centres unmarked) [XXI, N,N'-(2-Allyloxy-1,3-propanedioxysulfinyl)-bis (3-methylphenyl methylcarbamate)]	> 1000	–	–
CSC(C)=NOC(=O)N(C)S(=O)OCC(COC(C)C)OS(=O)N(C)C(=O)ON=C(C)SC (centres unmarked) [XIV, N,N'-(3-Isopropoxy-1,2-propanedioxysulfinyl)-bis (S-methyl N-methylcarbamoyloxythioacetimidate)]	170	81.5	–
CSC(C)=NOC(=O)N(C)S(=O)OC1C2OC(C)(C)OC2COC12COC(C)(C)O2 (centres unmarked) [XVII, S-Methyl N-(1,2,4,5-di-O-isopropylidene-3-O-fructopyranosylsulfinyl)-N-methylcarbamoyloxythioacetimidate]	1000	115	–
CSC(C)=NOC(=O)N(C)S(=O)OCC(COS(=O)N(C)C(=O)ON=C(C)SC)OS(=O)N(C)C(=O)ON=C(C)SC (centres unmarked) [XV, N,N',N",-(1,2,3-Propanetrioxysulfinyl)-tris (S-methyl N-methylcarbamoyloxythioacetimidate)]	50 to 100	–	–
CN(C(=O)Oc1cccc2ccccc12)S(=O)OC1C2OC(C)(C)OC2COC12COC(C)(C)O2 (stereo not drawn) [XXXXII, 1-Naphthyl N-(1,2,4,5-di-O-isopropylidene-3-α-O-fructopyranosylsulfinyl)-N-methylcarbamate]	> 1000	–	–
CC(C)Oc1ccccc1OC(=O)N(C)S(=O)OCC12OCC3OC(C)(C)OC3C1OC(C)(C)O2 (stereo not drawn) [XXXXIV, 2-Isopropoxyphenyl N-(2,3,4,5-di-O-isopropylidene-1-α-O-fructopyranosylsulfinyl)-N-methylcarbamate]	> 1000	–	–
CSC(C)=NOC(=O)N(C)[S+]([O-])SCCS[S+]([O-])N(C)C(=O)ON=C(C)SC (centres unmarked) [Example VIII, N,N'-(1,2-Ethanedithiosulfinyl)-bis (S-methyl N-methylcarbamoyloxy thioacetimidate)]	250	75	–
CSC(C)=NOC(=O)N(C)S(=O)OCC12OCC3OC(C)(C)OC3C1OC(C)(C)O2 (stereo not drawn) [XVI, S-Methyl N-(2,3,4,5-di-O-isopropylidene-1-α-O-fructopyranosylsulfinyl)-N-methylcarbamoyloxythioacetimidate]	500	50	–
CC(C)OCC(COS(=O)N(C)C(=O)Oc1cccc2ccccc12)OS(=O)N(C)C(=O)Oc1cccc2ccccc12 (centres unmarked) [XXXIX, N,N'-(3-Isopropoxy-1,2-propanedioxysulfinyl)-bis(1-naphthyl methylcarbamate)]	> 1000	–	–
CSC(C)=NOC(=O)N(C)S(=O)OCCOS(=O)N(C)C(=O)ON=C(C)SC (centres unmarked) [Example I, N,N'-(1,2-ethanedioxysulfinyl)-bis (S-methyl N-methylcarbamoyloxy-thioacetimidate)]	52	60	–
C=CCOCC(COS(=O)N(C)C(=O)ON=C(C)SC)OS(=O)N(C)C(=O)ON=C(C)SC (centres unmarked) [XI, N,N'-(3-Allyloxy-1,2-propanedioxysulfinyl)-bis (S-methyl N-methylcarbamoyloxythioacetimidate)]	50 to 80	40	–
CSC(C)=NOC(=O)N(C)S(=O)OCC1COC(C)(C)O1 (centres unmarked) [Example III, S-methyl N-(2,2-dimethyl-1,3-dioxolane-5-yl-methoxysulfinyl)-N-methylcarbamoyloxythioacetimidate]	84	7	–
Cc1cccc(OC(=O)N(C)S(=O)OC2C(C3COC(C)(C)O3)OC3OC(C)(C)OC32)c1 (centres unmarked) [XXVI, 3-Methylphenyl N-(1,2,5,6-di-O-isopropylidene-3-O-glucofuranosylsulfinyl)-N-methylcarbamate]	> 1000	–	–
CN(C(=O)Oc1cccc2ccccc12)S(=O)OCC(COCc1ccccc1)OS(=O)N(C)C(=O)Oc1cccc2ccccc12 (centres unmarked) [XXXVIII, N,N'-(3-Benzyloxy-1,2-propanedioxysulfinyl)-bis(1-naphthyl methylcarbamate)]	> 1000	–	–
C=CCOCC(COS(=O)N(C)C(=O)Oc1cccc(C)c1)OS(=O)N(C)C(=O)Oc1cccc(C)c1 (centres unmarked) [XIX, N,N'-(3-Allyloxy-1,2-propanedioxysulfinyl)-bis (3-methylphenyl methylcarbamate)]	> 1000	–	–
CN(C(=O)Oc1cccc2ccccc12)S(=O)OCC12OCC3OC(C)(C)OC3C1OC(C)(C)O2 (stereo not drawn) [XXXXI, 1-Naphthyl N-(2,3,4,5-di-O-isopropylidene-1-α-O-fructopyranosylsulfinyl)-N-methylcarbamate]	> 1000	–	–
